Measurements reported in paper PMC2834880 (International journal of biological macromolecules, 2010).
“Also recorded” adds a separate entry of the source. Like-named read-outs stand apart in the source and are kept apart here. Where no end group is shown, it is not given here.

Legend:
[1] = molecular target: purified F1 and membrane bound F1Fo E. coli ATP synthase (Escherichia coli, UniProt P0ABB4); test: biochemical
[2] = tested on: wild-type E. coli strain pBWU13.4/DK; type: cell-based, Escherichia coli
[3] = tested on: E. coli strain pBWU13.4/DK8; type: cell-based, Escherichia coli
[4] = succinate plates, limiting glucose, or LB media

Chain of purified F1 and membrane bound F1Fo E. coli ATP synthase (P0ABB4 whole entry, looked up): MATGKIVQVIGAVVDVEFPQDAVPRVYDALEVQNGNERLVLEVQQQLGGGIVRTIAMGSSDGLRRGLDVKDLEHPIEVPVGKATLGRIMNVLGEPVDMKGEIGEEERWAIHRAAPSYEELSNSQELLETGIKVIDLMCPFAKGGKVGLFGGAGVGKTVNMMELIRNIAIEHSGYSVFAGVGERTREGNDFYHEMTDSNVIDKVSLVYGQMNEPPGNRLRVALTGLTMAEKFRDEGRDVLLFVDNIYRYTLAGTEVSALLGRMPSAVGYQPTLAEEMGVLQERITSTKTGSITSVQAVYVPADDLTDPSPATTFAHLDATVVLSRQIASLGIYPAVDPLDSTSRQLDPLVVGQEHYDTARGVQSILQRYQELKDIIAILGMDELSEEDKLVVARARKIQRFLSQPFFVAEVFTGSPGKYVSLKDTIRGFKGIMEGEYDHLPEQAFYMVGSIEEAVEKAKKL

Compound | ATPase inhibition (%) [1] [%] | growth of E. coli in presence of peptide [2] | Growth yield on limiting glucose (%) [3] [%] | other results
Magainin II | 20 | did not affect growth | – | maximal inhibition of ATPase activity [1]: ~ 20%
Caerin 1.9 | 52 | – | – | maximal inhibition of ATPase activity [1]: ~ 52%
XT-7: amphibian antimicrobial peptide, Xenopus tropicalis, 18 residues (GLLGPLLKIAAKVGSNLL) | – | – | 89 | growth of E. coli in presence of peptide [2, 4]: did not affect growth
AIGSILGALAKGLPTLISWIKNR [MRP] | – | – | – | IC50 [1]: ~4.77 µM
Ascaphin-8 | 59 | no growth; also recorded: abrogated growth | – | residual ATPase activity at maximal inhibition [1]: ~ 41%
CC[C@H](C)[C@H](NC(=O)CN)C(=O)NCC(=O)N[C@@H](C)C(=O)N[C@H](C(=O)N[C@@H](CC(C)C)C(=O)N[C@@H](CCCCN)C(=O)N[C@H](C(=O)N[C@@H](CC(C)C)C(=O)N[C@H](C(=O)N[C@H](C(=O)NCC(=O)N[C@@H](CC(C)C)C(=O)N1CCC[C@H]1C(=O)N[C@@H](C)C(=O)N[C@@H](CC(C)C)C(=O)N[C@H](C(=O)N[C@@H](CO)C(=O)N[C@@H](Cc1c[nH]c2ccccc12)C(=O)N[C@H](C(=O)N[C@@H](CCCCN)C(=O)N[C@@H](CCCNC(=N)N)C(=O)N[C@@H](CCCCN)C(=O)N[C@@H](CCCNC(=N)N)C(=O)N[C@@H](CCC(N)=O)C(=O)N[C@@H](CCC(N)=O)C(N)=O)[C@@H](C)CC)[C@@H](C)CC)[C@@H](C)O)[C@@H](C)O)C(C)C)C(C)C [Melittin-NH2, reference compound] | – | – | – | IC50 [1]: ~4.68 µM
Aurein 2.3: amphibian antimicrobial peptide, Litoria aurea, 16 residues (GLFDIVKKVVGAIGSL-NH2) | – | – | 24 | growth of E. coli in presence of peptide [2, 4]: no growth; also recorded: abrogated growth
Citropin 1.1 | 57 | no growth; also recorded: abrogated growth | – | residual ATPase activity at maximal inhibition [1]: ~ 43%
Aurein 2.2: amphibian antimicrobial peptide, Litoria aurea, 16 residues (GLFDIVKKVVGALGSL-NH2) | – | – | 12 | more inhibition of ATPase than aurein 2.3 ([1]; Leu-13 (aurein 2.2) instead of Ile-13 (aurein 2.3)): ~ 40%; growth of E. coli in presence of peptide [2, 4]: no growth; also recorded: abrogated growth
Caerin 1.8: amphibian antimicrobial peptide, Litoria chloris, 24 residues (GLFKVLGSVAKHLLPHVVPVIAEK) | – | – | 99 | growth of E. coli in presence of peptide ([2]; succinate plates, limiting glucose, or LB media, listed as carein 1.8): did not affect growth
Dermaseptin | 26 | no growth; also recorded: abrogated growth | – | residual ATPase activity at maximal inhibition [1]: ~ 74%
